Paper PMC6792352, “Limited Chemical Structural Diversity Found to Modulate Thyroid Hormone Receptor in the Tox21 Chemical Library” (Environmental Health Perspectives, 2019)
Structures can show the parent of a compound that is named as a salt. Where two headings read alike, the source gives them in different places.

System: GH3-TRE-Luc cell line
Conditions: read-out: AC50 (uM) modified / 1000, viability, 1 nM T3 present, 24 h

Compound `CC/C(=C(\c1ccccc1)c1ccc(OCCN(C)C)cc1)c1ccccc1` [Tamoxifen] has a CC50 (Tox21_110001=Tox21_201243) of 13.9 µM and a CC50 (Tox21_110001=Tox21_300539) of 8.55 µM.

With `CC[C@H](c1ccc(O)cc1)[C@@H](CC)c1ccc(O)cc1` [meso-Hexestrol] the CC50 (Tox21_110001=Tox21_110377) was 13.9 µM and the CC50 (Tox21_110001=Tox21_301456) was 47 µM.

`CC/C(=C(\c1ccc(O)cc1)c1ccc(OCCN(C)C)cc1)c1ccccc1` [4-Hydroxytamoxifen] showed a CC50 (Tox21_110001=Tox21_303657) of 2.62 µM.

In the case of `COc1ccc(C(=O)/C(Br)=C\C(=O)O)cc1` [Bromebric acid], the CC50 (Tox21_110001=Tox21_111900) is reported as 31.6 µM.

With `COC(=O)[C@H]1[C@H]2C[C@@H]3c4[nH]c5cc(OC)ccc5c4CCN3C[C@H]2C[C@@H](OC(=O)c2cc(OC)c(OC)c(OC)c2)[C@@H]1OC` [Reserpine] the CC50 (Tox21_110001=Tox21_111107) was 12.5 µM, the CC50 (Tox21_110001=Tox21_202395) was 22.9 µM and the CC50 (Tox21_110001=Tox21_300537) was 75.5 µM.

For `CN(C)CCOc1ccccc1Cc1ccccc1` [Phentoloxamine PAS], the CC50 (Tox21_110001=Tox21_113232) was 25.5 µM.

In the case of `CC1CC(OC(=O)c2ccccc2O)CC(C)(C)C1` (stereo not shown) [3,3,5-Trimethylcyclohexyl salicylate], the CC50 (Tox21_110001=Tox21_111174) is reported as 42.4 µM and the CC50 (Tox21_110001=Tox21_303082) is reported as 72.7 µM.

`Oc1cccc2cccnc12` [8-Hydroxyquinoline] was tested, and the CC50 (Tox21_110001=Tox21_113083) was 3 µM, the CC50 (Tox21_110001=Tox21_202986) was 3.28 µM and the CC50 (Tox21_110001=Tox21_400006) was 3.8 µM.

Compound `CCCCCCCCCCCCCC[N+](C)(C)C` [Tetradonium bromide] has a CC50 (Tox21_110001=Tox21_112327) of 5.04 µM and a CC50 (Tox21_110001=Tox21_302067) of 8.21 µM.

With `CC[n+]1ccccc1` [1-Ethylpyridinium bromide] the CC50 (Tox21_110001=Tox21_202695) was 32.7 µM.

`O=C1OC2(c3ccccc31)c1cc(I)c(O)c(I)c1Oc1c2cc(I)c(O)c1I` [FD&C Red 3] showed a CC50 (Tox21_110001=Tox21_202932) of 18.4 µM and a CC50 (Tox21_110001=Tox21_302085) of 23.6 µM.

Work on `CN(C)c1ccc2nc3ccc(=[N+](C)C)cc-3sc2c1` [Methylene Blue trihydrate] yielded a CC50 (Tox21_110001=Tox21_202525) of 27.1 µM.

Work on `COc1cc([C@@H]2c3cc4c(cc3[C@H](O)[C@H]3COC(=O)[C@H]23)OCO4)cc(OC)c1OC` [Podofilox] yielded a CC50 (Tox21_110001=Tox21_202922) of 0.0227 µM.

In the case of `C[C@]12CC[C@@H]3c4ccc(O)cc4CC[C@H]3[C@@H]1CC[C@@H]2OC(=O)CCC1CCCC1` [Estradiol cypionate], the CC50 (Tox21_110001=Tox21_110003) is reported as 32.5 µM, the CC50 (Tox21_110001=Tox21_112331) is reported as 43.4 µM and the CC50 (Tox21_110001=Tox21_301818) is reported as 86.1 µM.

`NCCNc1cccc2ccccc12` [N-(1-Naphthyl)ethylenediamine dihydrochloride] was tested, and the CC50 (Tox21_110001=Tox21_111184) was 10.9 µM, the CC50 (Tox21_110001=Tox21_201928) was 37 µM and the CC50 (Tox21_110001=Tox21_302783) was 26 µM.

Work on `Cc1ncc[nH]1` [2-Methylimidazole] yielded a CC50 (Tox21_110001=Tox21_111136) of 0.0572 µM.

With `Cn1c(=O)c2c(ncn2C)n(C)c1=O` [Caffeine] the CC50 (Tox21_110001=Tox21_201685) was 41.2 µM.

For `CSc1ccc2c(c1)N(CCC1CCCCN1C)c1ccccc1S2` (stereo not shown) [Thioridazine], the CC50 (Tox21_110001=Tox21_110294) was 6.53 µM.

`O=C(NCC1CCCCN1)c1cc(OCC(F)(F)F)ccc1OCC(F)(F)F` (stereo not shown) [Flecainide] showed a CC50 (Tox21_110001=Tox21_110151) of 36.6 µM.

`Cc1c(C)c2c(c(C)c1OC(=O)CCC(=O)O)CC[C@@](C)(CCC[C@H](C)CCC[C@H](C)CCCC(C)C)O2` [d-alpha-Tocopheryl succinate] was tested, and the CC50 (Tox21_110001=Tox21_200568) was 20 µM.

Work on `Oc1cccc2cccnc12` [8-Quinolinol salicylic acid (1:1)] yielded a CC50 (Tox21_110001=Tox21_110005) of 10.3 µM.

`CN1CCc2cccc3c2[C@H]1Cc1ccc(O)c(O)c1-3` [Apomorphine] gave a CC50 (Tox21_110001=Tox21_110967) of 27.3 µM.

With `CCCCCCCCCCCCn1cc[n+](C)c1` [1-Dodecyl-3-methylimidazolium trifluoromethanesulfonate] the CC50 (Tox21_110001=Tox21_202630) was 3.74 µM.

With `CCCCCCCCCCCCCCCC[N+](C)(C)C` [Hexadecyltrimethylammonium bromide] the CC50 (Tox21_110001=Tox21_112096) was 9.07 µM and the CC50 (Tox21_110001=Tox21_300853) was 11.7 µM.

With `CC[C@]1(O)C[C@@H]2CN(CCc3c([nH]c4ccccc34)[C@@](C(=O)OC)(c3cc4c(cc3OC)N(C)[C@H]3[C@@](O)(C(=O)OC)[C@H](OC(C)=O)[C@]5(CC)C=CCN6CC[C@]43[C@@H]65)C2)C1` [Vinblastine sulfate] the CC50 (Tox21_110001=Tox21_111498) was 0.185 µM and the CC50 (Tox21_110001=Tox21_112735) was 2.29 µM.

Work on `C=C(C)[C@H]1Cc2c(ccc3c2O[C@@H]2COc4cc(OC)c(OC)cc4[C@@H]2C3=O)O1` [Rotenone] yielded a CC50 (Tox21_110001=Tox21_110819) of 3.27 µM, a CC50 (Tox21_110001=Tox21_201904) of 15.5 µM and a CC50 (Tox21_110001=Tox21_300695) of 5.41 µM.

Work on `Cc1ccc(-c2cc(C(F)(F)F)nn2-c2ccc(S(N)(=O)=O)cc2)cc1` [Celecoxib] yielded a CC50 (Tox21_110001=Tox21_111135) of 21.2 µM, a CC50 (Tox21_110001=Tox21_201964) of 46.6 µM and a CC50 (Tox21_110001=Tox21_300599) of 62.4 µM.

In the case of `O=C(O)CCCC(=O)O` [Glutaric acid], the CC50 (Tox21_110001=Tox21_302871) is reported as 35.4 µM.

Work on `CCN(CC)CCCC(C)Nc1ccnc2cc(Cl)ccc12` (stereo not shown) [Chloroquine bis(phosphate)] yielded a CC50 (Tox21_110001=Tox21_110115) of 19.6 µM.

Compound `Nc1c(S(=O)(=O)O)cc(Br)c2c1C(=O)c1ccccc1C2=O` [1-Amino-4-bromo-9,10-dioxo-9,10-dihydroanthracene-2-sulfonic] [1-Amino-4-bromo-9,10-dioxo-9,10-dihydroanthracene-2-sulfonic acid] has a CC50 (Tox21_110001=Tox21_301752) of 60.1 µM.

Compound `NC(N)=O` [Carbamide peroxide] has a CC50 (Tox21_110001=Tox21_302451) of 69 µM.

`Oc1cc(Cl)ccc1Oc1ccc(Cl)cc1Cl` [Triclosan] was tested, and the CC50 (Tox21_110001=Tox21_111648) was 50.4 µM and the CC50 (Tox21_110001=Tox21_400079) was 13.3 µM.
